One assay relates to Clostridium XIVa cluster. Description: i-screen microbiota composition by 16S rRNA V4 sequencing, Clostridium XIVa. It is filed as cell-based, human. To be noted: 24 h SIEM, amino acids 3.5 mM, dipeptides 7 mM. From the text:
(§1) To determine the effect of the probiotic strains Bacillus subtilis DSM 32315, Bacillus subtilis DSM 32540, Bacillus licheniformis DSM 32314 and Bacillus amyloliquefaciens CECT 5940 on adult colonic microbiota, an intestinal screening model was used (i-screen, TNO, the Netherlands). Therefore the i-screen model was inoculated with standard human adult fecal microbiota material, which consisted of pooled fecal donations from 6 healthy adult volunteers (Caucasian, European lifestyle and nutrition). The fecal material was mixed and grown in a fed-batch fermenter for 40 hours to create a standardized microbiota as described previously. These standard adult gut microbiota sets were stored at −80° C. in 12% glycerol.
(§2) The intestinal microbiota was cultured in vitro in modified standard ileal efflux medium (SIEM), the composition of which was described by and modified as follows: 0.047 g/l pectin, 0.047 g/l xylan, 0.047 g/l arabinogalactan, 0.047 g/l amylopectin, 0.392 g/l starch, 24.0 g/l casein, 24.0 Bacto pepton, 0.4 ox-bile and 0.2 g/l cysteine. All components were supplied by Trititium Microbiology (Veldhoven, The Netherlands). The pH of the medium was adjusted to 5.8.
(§3) For the i-screen fermentations, the precultured standardized fecal inoculum was diluted 50 times in 1350 μl modified SIEM. All experiments have been carried out in triplicates. The strains Bacillus subtilis (DSM 32315), Bacillus subtilis DSM 32540, Bacillus licheniformis DSM 32314 and Bacillus amyloliquefaciens CECT 5940 were precultured separately in 50 ml LBKelly medium, for about 16 h. Incubation was done in shaking flasks at 37° C. under aerobic conditions. After incubation, bacterial density was determined by optical density measurement at 600 nm. A final stock solution of 1×10^10 cells/ml was prepared in 1 ml buffer solution (0.1 mM MES pH 6). The suspension of each strain was introduced into the i-screen to a final level of about 10^9 cells/ml, respectively
(§4) The i-screen incubation was performed under following gas conditions: 0.2% O2, 0.2% CO2, 10% H2, 89.6% N2.
(§5) DNA extraction for the sequencing of 16S rRNA coding genes was performed as described by Ladirat et al. (2013) with some minor modifications. Approximately 100 μl of the culture materials were added to the wells of a 96 well plate containing per well 300 μl of lysis buffer (Mag Mini DNA Isolation Kit, LGC ltd, UK), 500 μl zirconium beads (0.1 mm; BioSpec products, Bartlesville, OK, USA) and 500 μl of phenol saturated with Tris-HCI (pH 8.0; Carl Roth GMBH, Germany). The 96 well plate was placed in a Mini-BeadBeater-96 (BioSpec products, Bartlesville, Okla, USA) for 2 min at 2100 oscillations/min. DNA was subsequently purified using the Agowa Mag Mini DNA Isolation Kit according to the manufacturer recommendations. Extracted DNA was eluted in a final volume of 60 μl buffer.
(§6) The microbiota composition was analyzed by 16S rRNA gene amplicon sequencing of the V4 Hypervariable Region. This was Achieved Through a Series of Steps:
(§7) Subsequently, PCR amplicons of the V4 hypervariable region of the 16S rRNA gene were generated for the individual samples by amplification of […] of DNA as described by (2013), using F515/R806 primers. Primers included Illumina adapters and a unique 8-nt sample index sequence key. A mock control was included for technical quality control. The amount of amplified DNA per sample was quantified using the dsDNA 910 Reagent Kit on the Fragment Analyzer (Advanced Analytical). The amplicon libraries were pooled in equimolar amounts and purified from 1,2% agarose gel using the Gel Extraction Kit (Qiagen). The Library was quantified using the Quant-iT™ PicoGreen® dsDNA Assay Kit (Thermo Fisher Scientific). Paired-end sequencing of amplicons was conducted on the Illumina MiSeq platform (Illumina, Eindhoven, The Netherlands).
(§8) The sequence data was processed with Mothur v.1.36.1 [26] in line with the mothur MiSeq SOP [24].

A further assay has as its system Clostridium XI cluster. The assay is described as follows: i-screen microbiota composition by 16S rRNA V4 sequencing, Clostridium XI. Particulars: for effect on Clostridia XI group: Example 8, dipeptides 7 mM, 0% O2; for Clostridium_XI relative abundance: 24 h SIEM, amino acids 3.5 mM, dipeptides 7 mM. The assay is classed as cell-based, human.
Excerpt: as §1, §2
as §3, with “The suspension of each strain was introduced into the i-screen to a final level of about 10^9 cells/ml, respectively” left out
as §5, §6, §7, §8

A further assay concerns human gut microbiota. The assay is described as follows: lactate and short-chain fatty acid production in i-screen with human gut microbiota. It is filed as cell-based. To be noted: 24 h, amino acids 3.5 mM, dipeptides 7 mM.
Excerpt: as §1, §2, §3, §4
The effect of the combination of different probiotic strains together with glutamine, or glutamine- or glutamic acid-containing dipeptides containing peptides on the n-butyrate production of the microbial community was analyzed for the strain B. subtilis (DSM 32315) as described in example 1 and 5. The single amino acids were added to a concentration of 3.5 mM and the dipeptides to a concentration of 7 mM.
The effects of the combination of different probiotic strains together with glutamine, or glutamine- or glutamic acid-containing dipeptides containing peptides on the n-butyrate production of the microbial community were analyzed for the strains B. licheniformis (DSM 32314) and B. amyloliquefaciens (CECT 5940) as described in example 1, 5, and 10. The single amino acids were added to a concentration of 3.5 mM and the dipeptides to a concentration of 7 mM.

The mark [1] stands for this setting: microbiota + CECT 5940 (first group so headed, r13-r15).
Setting [2] is: microbiota + CECT 5940 (second group so headed, r16-r18).
Setting [3] is: in combination with B. licheniformis (DSM 32314).
Where [4] appears, read: in combination with B. subtilis (DSM 32315).

Where a SMILES comes first, the peptide text is derived from it.

In the case of `C[C@H](N)C(=O)N[C@@H](CCC(N)=O)C(=O)O` [Ala-Gln, Alanine-Glutamine] (H-Ala-Gln-OH), the Clostridium_XIVa relative abundance in the assay with Clostridium XIVa cluster (setting [1]) came out at 10%; with Clostridium XIVa cluster (setting [2]), 6%; in the assay on Clostridium XIVa cluster (microbiota + DSM 32315) it was 4%; in the assay on Clostridium XIVa cluster (microbiota, no probiotic cells), 2%. Moreover, the “effect on Clostridia XI group” value with Clostridium XI cluster is “reduced the Clostridia XI group almost completely”. Besides, the Clostridium_XI relative abundance in the assay with Clostridium XI cluster (setting [1]) was 0%; in the assay with Clostridium XI cluster (setting [2]) it was 0%; in the assay on Clostridium XI cluster (microbiota + DSM 32315), 0%; with Clostridium XI cluster (microbiota, no probiotic cells), 0%. The “synergy on n-butyrate concentration” value with human gut microbiota (setting [3]) and with human gut microbiota (setting [4]) was “Synergistic positive effects” each time.

`CC(=O)N[C@@H](C)C(=O)N[C@@H](CCC(N)=O)C(=O)O` [Ac-Ala-Gln] (Ac-Ala-Gln-OH): the Clostridium_XIVa relative abundance with Clostridium XIVa cluster (setting [1]) was found to be 1%; in the assay on Clostridium XIVa cluster (setting [2]), 4%; with Clostridium XIVa cluster (microbiota + DSM 32315) it was 2%; in the assay with Clostridium XIVa cluster (microbiota, no probiotic cells), 1%. The Clostridium_XI relative abundance with Clostridium XI cluster (setting [1]) came out at 21%; with Clostridium XI cluster (setting [2]) it was 20%; in the assay on Clostridium XI cluster (microbiota + DSM 32315), 31%; in the assay with Clostridium XI cluster (microbiota, no probiotic cells), 27%.

Regarding `NC(=O)CC[C@H](N)C(=O)O` [Gln, glutamine, reference compound], the Clostridium_XIVa relative abundance with Clostridium XIVa cluster (setting [1]) is 1%; in the assay with Clostridium XIVa cluster (setting [2]) it was 9%; in the assay with Clostridium XIVa cluster (microbiota + DSM 32315) it was 2%; in the assay on Clostridium XIVa cluster (microbiota, no probiotic cells), 1%. Besides, the Clostridium_XI relative abundance worked out at 20% with Clostridium XI cluster (setting [1]); 21% in the assay on Clostridium XI cluster (setting [2]); 24% in the assay with Clostridium XI cluster (microbiota + DSM 32315); 28% in the assay on Clostridium XI cluster (microbiota, no probiotic cells). In addition, the “synergy on n-butyrate concentration” value in the assay with human gut microbiota (in combination with B. amyloliquefaciens (CECT 5940)) and in the assay on human gut microbiota (setting [4]) was “Synergistic positive effects” in each case.

In the case of `NCC(=O)O.N[C@@H](CCC(=O)O)C(=O)O` [Gly-Glu, Glycine-Glutamic acid], the Clostridium_XIVa relative abundance with Clostridium XIVa cluster (setting [1]) is reported as 9%; in the assay on Clostridium XIVa cluster (setting [2]) it was 10%; in the assay with Clostridium XIVa cluster (microbiota + DSM 32315), 8%; in the assay with Clostridium XIVa cluster (microbiota, no probiotic cells), 4%. Besides, the “effect on Clostridia XI group” value in the assay on Clostridium XI cluster is “reduced the Clostridia XI group almost completely”. Further, the Clostridium_XI relative abundance with Clostridium XI cluster (setting [1]) came to 0%; in the assay with Clostridium XI cluster (setting [2]), 0%; in the assay with Clostridium XI cluster (microbiota + DSM 32315), 0%; with Clostridium XI cluster (microbiota, no probiotic cells), 0%. Further, the “synergy on n-butyrate concentration” value in the assay with human gut microbiota (setting [3]) and in the assay with human gut microbiota (setting [4]) was “Synergistic positive effects” each time.

Take `N[C@@H](CCC(=O)O)C(=O)O` [Glu, glutamic acid, reference compound]: the Clostridium_XIVa relative abundance in the assay with Clostridium XIVa cluster (setting [1]) turned out to be 1%; in the assay on Clostridium XIVa cluster (setting [2]) it was 1%; in the assay on Clostridium XIVa cluster (microbiota + DSM 32315), 3%; with Clostridium XIVa cluster (microbiota, no probiotic cells), 1%. The Clostridium_XI relative abundance in the assay on Clostridium XI cluster (setting [1]) is 26%; in the assay with Clostridium XI cluster (setting [2]), 18%; in the assay with Clostridium XI cluster (microbiota + DSM 32315) it was 25%; with Clostridium XI cluster (microbiota, no probiotic cells) it was 27%. Moreover, the “synergy on n-butyrate concentration” value with human gut microbiota (setting [4]) was “Synergistic positive effects”.
